The values that follow are results of earlier work, collected in article PMC10326281, “Insights into the mechanisms governing P01 scorpion toxin effect against U87 glioblastoma cells oncogenesis” (Frontiers in Pharmacology, 2023).

Where a SMILES comes first, the peptide text is derived from it. Bridges are numbered along the chain shown (N, C = ends).

One series relates to SK2 channel. Particulars: Jurkat cells; ref Shakkottai et al., 2001; cited from earlier work. From the text: (§1) This can be explained by the differential expression of either functional SK2 isoforms or other membrane receptors between HEK293 and Jurkat cells.
The subject of another series is SK3 channel. Particulars: Jurkat cells; ref Shakkottai et al., 2001; cited from earlier work.
Excerpt: as §1

Take `CC[C@H](C)[C@H](NC(=O)[C@@H]1CCCN1C(=O)[C@H](CCC(=O)O)NC(=O)[C@@H]1CSSC[C@@H]2NC(=O)[C@H](Cc3c[nH]cn3)NC(=O)[C@H](CCC(=O)O)NC(=O)[C@@H]3CCCN3C(=O)[C@@H]3CSSC[C@H](NC(=O)[C@H](CCCCN)NC(=O)[C@H](CC(=O)O)NC(=O)[C@H](CC(N)=O)NC(=O)[C@H](CC(=O)O)NC(=O)[C@H](CSSC[C@H](NC(=O)[C@H](CO)NC(=O)[C@@H](N)C(C)C)C(=O)N[C@@H](CCC(=O)O)C(=O)N[C@@H](CC(=O)O)C(=O)N3)NC(=O)[C@H](CCCCN)NC(=O)[C@H](C)NC(=O)[C@H](CCC(N)=O)NC(=O)[C@H](C)NC(=O)[C@H](CCCCN)NC(=O)[C@H](CCC(N)=O)NC(=O)[C@H]([C@@H](C)O)NC(=O)[C@H](CO)NC2=O)C(=O)N[C@@H](C(C)C)C(=O)N1)C(=O)O` [P01] (H-VSCEDCPEHCSTQKAQAKCDNDKCVCEPI-OH; disulfide 3-19, 6-24, 10-26 (inferred); N-terminus and C-terminus assumed): the “blocking activity on SK2” value with SK2 channel was “little or no blocking activity”. For the same molecule, the “blocking activity on SK3” value in the series on SK3 channel is reported as “little or no blocking activity”.
